Data as given in PubChem BioAssay (NCI).
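Tested at 5 concentrations; 48 h exposure; 96-well plates; endpoints linearly interpolated, else capped at highest concentration. TGI marks complete inhibition of growth.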

Assays:
Assay in all cases: growth of human tumour cells (NCI), 48 h
[1] = test system: MOLT-4 leukemia
[2] = test system: MALME-3M melanoma
[3] = test system: RPMI-8226 leukemia
[4] = test system: NCI-H460 lung
[5] = test system: TK-10 renal
[6] = test system: U251 CNS
[7] = test system: A498 renal
[8] = test system: CAKI-1 renal
[9] = test system: HT29 colon
[10] = test system: HOP-92 NSCLC
[11] = test system: SF-539 CNS
[12] = test system: 786-0 renal
[13] = test system: SNB-19 CNS
[14] = test system: CCRF-CEM leukemia
[15] = test system: OVCAR-3 ovarian
[16] = test system: LOX IMVI melanoma

Row | Structure (SMILES) | TGI [1] [µM] | TGI [2] [µM] | TGI [3] [µM] | TGI [4] [µM] | TGI [5] [µM] | TGI [6] [µM] | TGI [7] [µM] | TGI [8] [µM] | TGI [9] [µM] | TGI [10] [µM] | TGI [11] [µM] | TGI [12] [µM] | TGI [13] [µM] | TGI [14] [µM] | TGI [15] [µM] | TGI [16] [µM]
1 | C=CCSC1=N/C(=C\c2ccco2)C(=O)N1CC=C | > 100 | > 100 | > 100 | > 100 | > 100 | > 100 | 94.1 | > 100 | > 100 | > 100 | > 100 | > 100 | > 100 | > 100 | > 100 | > 100
2 | c1ncc(C23C4C5C6C4C2C6C53)[nH]1 (stereo not given) | > 100 | > 100 | > 100 | > 100 | > 100 | > 100 | > 100 | > 100 | > 100 | > 100 | > 100 | > 100 | > 100 | > 100 | > 100 | > 100
3 | O=C(Nc1ccc(Cl)cc1)C(=O)C1=C(O)c2ccccc2OC1 | > 100 | > 100 | > 100 | > 100 | > 100 | > 100 | > 100 | > 100 | > 100 | > 100 | > 100 | > 100 | > 100 | > 100 | > 100 | > 100
4 | O=C(CCl)Nc1ccc(-c2nc3ccccc3s2)cc1 | 12.8 | 4.13 | 5.34 | 7.46 | 22.6 | 3.15 | 11.7 | 3.38 | 5.57 | 6.08 | 8.16 | 4.62 | 9.99 | > 36.7 | 3.61 | 2.31
5 | CSc1nc2ccccc2c(=O)n1-c1cccc(C)c1 | 98.2 | > 100 | > 100 | > 100 | > 100 | > 100 | 92 | > 100 | > 100 | > 100 | > 100 | > 100 | > 100 | > 100 | > 100 | > 100
6 | c1cc(-c2ccc(Oc3ccc(-c4ccncc4)cc3)cc2)ccn1 | 41.5 | > 44 | 4.96 | > 94.2 | > 66.1 | > 48.8 | > 69.7 | > 27.1 | > 49.6 | > 88.6 | > 100 | > 100 | > 100 | > 47.3 | > 61.8 | > 100
7 | CC(C)c1cc(C(C)C)c(P2(=O)CC3C(Cl)(Cl)C3(C)C2)c(C(C)C)c1 (stereo not given) | > 23.1 | 33.2 | > 25.5 | 24.4 | 24.5 | 22 | 26.9 | 9.6 | 24.6 | 27.3 | 27.1 | 14.6 | 19.4 | 6.03 | 20.4 | 21.5
8 | COC(=O)C1(Cc2ccccc2C)Cc2ccc(C)cc2C1=O (stereo not given) | 74.7 | 72.6 | 32.2 | > 100 | 85.9 | > 100 | > 100 | > 100 | 57.5 | 71.3 | > 100 | > 100 | > 100 | > 100 | > 100 | 45.9
9 | CC(C)Cn1cnnc1NS(=O)(=O)c1cc(C(=O)NN)c(Cl)cc1S | > 10 | > 10 | > 10 | > 10 | > 10 | > 10 | > 10 | > 10 | > 10 | > 10 | > 10 | > 10 | > 10 | > 10 | > 10 | > 10
10 | OCC1OC(NC(=S)NCSCCC(F)(F)C(F)(F)C(F)(F)C(F)(F)C(F)(F)C(F)(F)F)C(O)C(O)C1O (stereo not given) | > 100 | > 100 | > 100 | > 100 | > 100 | 46.6 | 12.6 | > 100 | > 100 | 66.4 | 47.2 | > 100 | > 100 | 91.3 | > 100 | > 100
11 | [N-]=[N+]=NC1=C(N=[N+]=[N-])c2cccc3cccc(c23)C1=O | > 100 | > 100 | > 100 | > 100 | > 100 | > 100 | > 100 | > 100 | > 100 | > 100 | > 100 | > 100 | > 100 | > 100 | > 100 | > 100
12 | O=C1C2=Cc3ccccc3CCN2c2ccc([N+](=O)[O-])cc21 | > 100 | > 100 | > 100 | > 100 | > 100 | > 100 | > 100 | > 100 | > 100 | > 100 | > 100 | > 100 | > 100 | > 100 | > 100 | > 100
13 | COc1ccc(N=C/C=C/C(=C/COC(C)=O)OC(C)=O)cc1 | > 100 | 69.5 | > 100 | 98.6 | > 100 | 72.3 | 62.9 | 63.8 | 70.6 | 57.4 | > 100 | 90 | > 100 | > 100 | > 100 | > 100
14 | O=Cc1cc(O)ccc1Br | 43.8 | > 31.6 | > 36 | > 100 | 99 | 41.3 | > 100 | 48.1 | 67.5 | 75.7 | 60.5 | > 78.3 | > 100 | 15.5 | > 91.8 | 33.4
15 | COc1cc(O)c2c(=O)cc(C3(OC(C)=O)C=CC(OC4OC(CO)C(O)C(O)C4O)C=C3)oc2c1 (stereo not given) | > 100 | > 100 | > 100 | > 100 | > 100 | > 100 | > 100 | > 100 | > 100 | > 100 | > 100 | > 100 | > 100 | > 100 | > 100 | > 100
16 | O=C1NC(c2ccccc2)C1N(Cc1ccccc1)Cc1ccccc1 (stereo not given) | > 100 | > 100 | > 100 | > 100 | > 100 | > 100 | > 100 | > 100 | > 100 | > 100 | > 100 | > 100 | > 100 | > 100 | > 100 | > 100
17 | COc1ccc(C(c2ccccc2)N2C(=O)CCC2C(=O)O)cc1OC (stereo not given) | > 100 | > 100 | > 100 | > 100 | > 100 | > 100 | > 100 | > 100 | > 100 | > 100 | > 100 | > 100 | > 100 | > 100 | > 100 | > 100
18 | COC(=O)/C=C1/OC(c2ccccc2)=CC1=O | 17.3 | 34.9 | 23.2 | 43.5 | 37.2 | 32.1 | 18.7 | 33.9 | 39 | 52.8 | 39.8 | 27.9 | 32 | > 61.2 | 39.4 | 30
19 | CCCN=C1S/C(=C/c2ccc(OC)c(OC)c2)C(=O)N1c1ccccc1 | > 100 | > 100 | > 100 | > 100 | 55.2 | 38.7 | 58.2 | > 100 | > 100 | > 100 | 30.2 | 50.2 | 63.4 | > 100 | 43.3 | > 100
20 | Nc1nc(Cl)c(N)c(NCC2(CO)CC(O)C2)n1 (stereo not given) | > 100 | > 100 | > 100 | > 100 | > 100 | > 100 | > 100 | > 100 | > 100 | > 100 | > 100 | > 100 | > 100 | > 100 | > 100 | > 100
